Marks after values point to notes of the source that are not given here.
Assays:
[1] = Oxaspirocyclic ring opening via 13C-NMR; type: physicochemical; details: 20 min visible light irradiation with PI system
Protocol: NMR Studies: NMR spectra were acquired using a Bruker Advance Ultrashield FT-NMR spectrometer. A reaction mixture consisting of 6 (DEBTMSPOM-1,5,7,11-TOSU) and the PI system was heated to 55-60° C. to liquefy and then allowed to cool to room temperature. A 300 mg sample was transferred to an 8 mm I.D.×8 mm H cylindrical glass mold and irradiated for 20 min (3 mm; 500 mW/cm^2) using a 3M XL 2500 lamp. A small amount was transferred to an NMR tube, taken up in CDCl3 and the ^13C-NMR spectrum was acquired and compared to the pre-irradiation spectrum. The residual irradiated material was stored in the dark for 24 hr, resampled, and the NMR spectrum acquired and compared to the pre- and post-irradiation spectra.

[2] = Photoreactivity assessment (photo DSC enthalpy of polymerization); type: physicochemical; details: for experimental ΔH as % of the calculated ΔH: 3% photoacid
From the text: In this example, the photoreactivity of various combinations of SIL-MIX alone or SIL-MIX with 3,9-diethyl-3,9-bis(allyloxymethyl)-1,5,7,11-tetraoxaspiro[5.5]undecane (DEBAOM-1,5,7,11-TOSU) 1; 3,9-bis(3-trimethylsilylpropyl)-1,5,7,11-tetraoxaspiro[5.5]undecane (BTMSP-1,5,7,11-TOSU) 2; 3,9-bis(allyloxymethyl)-2,4,8,10-tetraoxaspiro[5.5]undecane (BAOM-2,4,8,10-TOSU) 3; 3,9-bis(2-trimethylsilylethyl)-[…] (BTMSE-2,4,8,10-TOSU) 4; 3,3-diethyl-11,12-epoxy-1,5,7,16-tetraoxadispiro[5.2.5.2]hexadecane (DECHE-1,5,7,11-TOSU) 5; and 3,9-diethyl-3,9-bis(3-trimethylsilylpropyloxymethyl)-1,5,7,11-tetraoxaspiro[5.5]-undecane (DEBTMSPOM-1,5,7,11-TOSU) 6 was investigated. The photoreactivity assessments (n=1) were made using an EXFO Novacure light curing unit interfaced with a Perkin-Elmer Diamond DSC. The experimental conditions were as follows: 25° C.; N2 atmosphere; 400-500 nm light; 3 mm quartz light guides; output: 500 mW/cm measured 15 mm from sample surface. The sample weights were 15-18 mg. Standard A1 pans were used. An empty pan was placed in the reference position. Irradiation time was for 10 minutes following a 1 minute equilibration. After the initial run, the sample was re-irradiated for an additional 10 minutes. This second curve was subtracted from the initial exotherm curve to zero out artifacts due to beginning and ending of irradiation, and to compensate for the heat capacity differences between the sample pan and empty reference pan. Integrations were from time t=1.1 (lamp shutter opened) min to 11.1 min (lamp shutter closed).
In this example, reaction mixtures containing 0 or 20 mol % of TOSU monomers 1, 2, 3, 4, and 5 in SIL-MIX were formulated with 4.1 wt % photoinitiator system (3 wt % PI; 1 wt % CQ; 0.1 wt % ED). Formulated mixtures were heated for 5 minutes on an oil bath at about 60° C. and stirred magnetically to aid dissolution of the photoinitiator system and inventive monomer. Formulations were prepared and stored away from ambient light. Mixtures were tested for photoreactivity the same day as prepared.
The effect of doubling the photoinitiator (PI) content from 3 wt % to 6 wt % was also determined for selected mixtures. As in Example 7(a) above, reaction mixtures (about 2 g) were formulated with 4.1 wt % photoinitiator system (3 wt % PI; 1 wt % CQ; 0.1 wt % ED) except where noted. Formulated mixtures were heated for 5 minutes on an oil bath @ 60° C. and stirred magnetically to dissolve the photoinitiator system and 6 (DEBTMSPOM-1,5,7,11-TOSU) when included. Formulations were prepared and stored away from ambient light and tested the same day as prepared.

[3] = Mechanical properties measurement (3-point bend tests); type: physicochemical
Protocol: In this example, the elastic modulus, ultimate strength, and work of fracture were determined for the monomers of the present invention. […] The resin was injected into the mold and cured by irradiation (500 mW/cm^2) followed by storage in the dark for 4 hours and 24 hours before mechanical tests were conducted. Three point bending tests were conducted using an electromagnetic mechanical testing machine (Enduratec Model 3200) with a 20-mm span and at a crosshead displacement rate of 0.5mm/ min at room temperature (25° C.). Load-displacement data were collected at 100 Hz. […] Flexural ultimate strength was determined from the peak loads and work of fracture was determined from the area under the stress-strain curve.

[4] = 4-hour Post Cure, 10 mol % TOSU in SIL-MIX
[5] = 4-hour Post Cure, 25 mol % TOSU in SIL-MIX
[6] = 24-hour Post Cure, 10 mol % TOSU in SIL-MIX
[7] = 24-hour Post Cure, 25 mol % TOSU in SIL-MIX

CCC1(COCCC[Si](C)(C)C)COC2(OC1)OCC(CC)(COCCC[Si](C)(C)C)CO2 (centres unmarked) [Monomer 6, 3,9-diethyl-3,9-bis(3-trimethylsilylpropyloxymethyl)-1,5,7,11-tetraoxaspiro[5.5]undecane]
changes in 13C-NMR spectrum (oxaspirocyclic ring opening) ([1]; 0 hour dark cure): No significant changes | changes in 13C-NMR spectrum (oxaspirocyclic ring opening) ([1]; 24 hour dark cure): consistent with oxaspirocyclic ring opening to form oligomeric carbonate species | melting point: 44.27 °C | ΔHexp ([2]; 3 wt % PI, 10 mol % in SIL-MIX): -124 J/g | ΔHexp ([2]; 3 wt % PI, 25 mol % in SIL-MIX): -86 J/g | ΔHcalc ([2]; 3 wt % PI, calculated for inert diluent instead of TOSU at 10 mol %): -174 J/g | ΔHcalc ([2]; 3 wt % PI, calculated for inert diluent instead of TOSU at 25 mol %): -145 J/g | ΔHexp ([2]; 6 wt % PI, 10 mol % in SIL-MIX): -127 J/g | ΔHexp ([2]; 6 wt % PI, 25 mol % in SIL-MIX): -87 J/g | ΔHcalc ([2]; 6 wt % PI, calculated for inert diluent instead of TOSU at 10 mol %): -166 J/g | ΔHcalc ([2]; 6 wt % PI, calculated for inert diluent instead of TOSU at 25 mol %): -139 J/g | experimental ΔH as % of the calculated ΔH ([2]; 10% TOSU mix in SIL-MIX): 71% | experimental ΔH as % of the calculated ΔH ([2]; 25% TOSU mix in SIL-MIX): 59% | Flexural elastic modulus ([3]; 4-h Post Cure, 10 mol % TOSU in SIL-MIX): 1.61 (0.17)^a GPa | Flexural elastic modulus ([3]; 4-h Post Cure, 25 mol % TOSU in SIL-MIX): 1.33 (0.18)^a GPa | Flexural strength [3, 4]: 58.77 (19.08)^a,b MPa | Work of Fracture [3, 4]: 2.67 (1.25)^a kJ/m^2 | Flexural strength [3, 5]: 30.90 (11.36)^a MPa | Work of Fracture [3, 5]: 0.73 (0.38)^a kJ/m^2 | 24-hour modulus values as % of those for SIL-MIX alone ([3]; 10 mol % TOSU): 77% | 24-hour strength values as % of those for SIL-MIX alone ([3]; 10 mol % TOSU): 84% | 24-hour work of fracture values as % of those for SIL-MIX alone ([3]; 10 mol % TOSU): 100% | 24-hour strength values as % of those for SIL-MIX alone ([3]; 10 mol % TOSU, listed as TOSU): 85% | Flexural elastic modulus ([3]; 24-h Post Cure, 10 mol % TOSU in SIL-MIX): 2.41 (0.24)^b GPa | Flexural elastic modulus ([3]; 24-h Post Cure, 25 mol % TOSU in SIL-MIX): 1.87 (0.06)^a GPa | Flexural strength [3, 6]: 76.90 (10.19)^a,b MPa | Work of Fracture [3, 6]: 3.07 (0.81)^a,b kJ/m^2 | Flexural strength [3, 7]: 56.63 (11.11)^a MPa | Work of Fracture [3, 7]: 1.80 (0.87)^a kJ/m^2 | 24-hour modulus values as % of those for SIL-MIX alone ([3]; 25 mol % TOSU): 60% | 24-hour strength values as % of those for SIL-MIX alone ([3]; 25 mol % TOSU): 60% | 24-hour work of fracture values as % of those for SIL-MIX alone ([3]; 25 mol % TOSU): 66%

From patent US20070072954A1, “Novel tetraoxaspiroalkanes and methods of use with organosilicon monomers in polyerizable compositions” (Curators of the University of Missouri, priority 2005, published 2007)
